Assay results from ChEMBL document CHEMBL4177617 (Bioorg Med Chem Lett, 2017).

System: not listed separately
Test: Inhibition of protease activity of Clostridium botulinum BoNT/A light chain using 66-mer SNAP-25 as substrate by LC-MS analysis
Settings: not given; call rule not given here

| SMILES | IC50 |
| --- | --- |
| O=C(/C=C/c1ccc([N+](=O)[O-])cc1)Oc1ccccc1OC(=O)/C=C/c1ccc([N+](=O)[O-])cc1 | Not Active |
| NCCc1ccc(OC(=O)c2ccc(O)c(O)c2)c(OC(=O)c2ccc(O)c(O)c2)c1 | Not Active |
| O=C(/C=C/c1ccc(CO)cc1)Oc1ccccc1OC(=O)/C=C/c1ccc(CO)cc1 | Not Active |
| CC(=O)Oc1ccc(/C=C/C(=O)Oc2ccccc2OC(=O)/C=C/c2ccc(OC(C)=O)c(OC(C)=O)c2)cc1OC(C)=O | Not Active |
| O=Cc1ccc(/C=C/C(=O)Oc2ccccc2OC(=O)/C=C/c2ccc(C=O)cc2)cc1 | Not Active |

Same assay, conditions: read-out: IC50

| SMILES | IC50 [nM] |
| --- | --- |
| O=C(/C=C/c1ccc(O)c(O)c1)Oc1cccc2cccc(OC(=O)/C=C/c3ccc(O)c(O)c3)c12 | 50 |
| COC(=O)c1ccc(OC(=O)/C=C/c2ccc(O)c(O)c2)c(OC(=O)/C=C/c2ccc(O)c(O)c2)c1 | 390 |
| O=C(/C=C/c1ccc(O)c(O)c1)OC[C@H]1CC[C@H]1COC(=O)/C=C/c1ccc(O)c(O)c1 | 1700 |
| O=C(Oc1ccccc1OC(=O)c1ccc(O)cc1)c1ccc(O)cc1 | 9500 |
| O=C(/C=C/c1ccc(O)c(O)c1)O[C@H]1CCCC[C@H]1OC(=O)/C=C/c1ccc(O)c(O)c1 | 3200 |
| CC(C)(C)C(COC(=O)/C=C/c1ccc(O)c(O)c1)COC(=O)/C=C/c1ccc(O)c(O)c1 | 130 |
| CC(C)OC(=O)[C@H](OC(=O)/C=C/c1ccc(O)c(O)c1)[C@@H](OC(=O)/C=C/c1ccc(O)c(O)c1)C(=O)OC(C)C | 2700 |
| O=C(/C=C/c1ccc(O)c(O)c1)O[C@H]1CCC[C@H]1OC(=O)/C=C/c1ccc(O)c(O)c1 | 2400 |
| O=C(/C=C/c1ccc(O)c(O)c1)OC/C=C\COC(=O)/C=C/c1ccc(O)c(O)c1 | 450 |
| O=C(/C=C/c1ccc(O)c(O)c1)OCc1ccccc1COC(=O)/C=C/c1ccc(O)c(O)c1 | 1100 |
| O=C(/C=C/c1ccc(O)c(O)c1)Nc1ccccc1NC(=O)/C=C/c1ccc(O)c(O)c1 | 3300 |
| O=C(/C=C/c1ccc(O)c(O)c1)Oc1cc2c(cc1OC(=O)/C=C/c1ccc(O)c(O)c1)OCCO2 | 300 |
| O=C(/C=C/c1ccc(O)c(O)c1)OCC#CCOC(=O)/C=C/c1ccc(O)c(O)c1 | 410 |
| O=C(/C=C/c1ccc(O)c(O)c1)O[C@@H]1CCCCC[C@H]1OC(=O)/C=C/c1ccc(O)c(O)c1 | 3200 |
| O=C(/C=C/c1ccc(O)c(O)c1)OCc1ccccc1OC(=O)/C=C/c1ccc(O)c(O)c1 | 140 |
| O=C(/C=C/c1ccc(O)c(O)c1)OC[C@@H]1C[C@@H]1COC(=O)/C=C/c1ccc(O)c(O)c1 | 130 |
| O=C(/C=C/c1ccc(O)c(O)c1)Oc1ccccc1OC(=O)/C=C/c1ccc(O)c(O)c1 | 490 |
| O=C(Oc1ccccc1OC(=O)c1ccc(O)c(O)c1)c1ccc(O)c(O)c1 | > 20000 |
| O=C(/C=C/c1cccc(O)c1)Oc1ccccc1OC(=O)/C=C/c1cccc(O)c1 | > 20000 |
| O=C(/C=C/c1ccc(O)c(O)c1)Oc1cccc(OC(=O)/C=C/c2ccc(O)c(O)c2)c1 | 560 |

System: Clostridium botulinum
Test: Inhibition of protease activity of Clostridium botulinum BoNT/A light chain using 66-mer SNAP-25 as substrate by LC-MS analysis relative to control
Settings: concentration not given here

| SMILES | inhibition [%] |
| --- | --- |
| O=C(/C=C/c1ccc(O)c(O)c1)O[C@@H](C(=O)O)[C@@H](OC(=O)/C=C/c1ccc(O)c(O)c1)C(=O)O | 64 |
| O=C(/C=C/c1ccc(O)c(O)c1)OC[C@@H]1C[C@@H]1COC(=O)/C=C/c1ccc(O)c(O)c1 | 75 |
| O=C(/C=C/c1ccc(O)c(O)c1)Oc1ccccc1OC(=O)/C=C/c1ccc(O)c(O)c1 | 96 |
